Experimental data: US9211244B2, “Method for anti-skin aging using caffeamide derivative” (CHINA MEDICAL UNIVERSITY, priority 2013, dated 2015)

How the values were obtained:
[1] = Scavenging test of DPPH free radical; format: biochemical; settings: for Scavenging efficiency (%): 200 μM DPPH, 30 minutes
Experimental: DPPH (1,1-diphenyl-2-picrylhydrazyl) was used as a source of free radicals to examine the scavenging efficiency of the caffeamide derivatives prepared in Example 1 on free radicals. […] The mixtures were placed in the dark at room temperature for 30 minutes and its absorbance at 517 nm was measured by an enzyme immunoassay analyzer. In this experiment, 50 volume % propanediol was used to replace extracts and to be a control group, ascorbic acid (vitamin C) was used as a positive control group, and methanol was used to replace DPPH as the background value. The scavenging efficiency of caffeamide derivatives on free radicals was examined by the formula blow, and the results are shown in Table 2, FIG. 1a, and FIG. 1b. Scavenging efficiency(%)=[the absorbance of the control group−the absorbance of the experimental group/the absorbance of the control group]×100%.

[2] = system: c-Jun; test: Inhibition test of AP-1 gene transcription factors, western blot; format: cell-based, human; settings: UVB 40 mJ/cm^2
Text: (§1) When cells are irradiated by UV rays, JNK, p38 and c-Jun in the cells will translocated into the nucleus, and c-For will translocate into the nucleus under the regulation of ERK and p38. The two subunits of c-Jun and c-Fos will combine to form an AP-1 gene transcription factor to participate in gene expression process and increase the mRNA transcription level of MMP-1. On the other hand, the two subunits can also reduce the gene expression level of procollagen al of Type I collagen. Therefore, in this experiment, the expression of AP-1 in the nucleus was analyzed by western blotting.
(§2) However, after the cells were treated with the compound of formula (2) prepared in Example 1, the protein expression levels of c-Fos, p-c-Jun, and c-Jun induced by UVB were inhibited in a concentration dependent way. Specifically, when the concentration of the compound of formula (2) was 10 μM, the expression level of c-Fos was 1.1 as compared to that of the untreated cells.

[3] = system: c-Fos; test: as above; format: cell-based, human; settings: 5 μM; UVB 40 mJ/cm^2
Text: as §1, §2

[4] = system: Smad3; test: Promotion test of the expression of collagen, western blot; format: cell-based, human; settings: UVB 40 mJ/cm^2; result in words
Experimental: (§3) It has been known that Smad3 protein can promote the expression level of procollagen-1, and Smad7 protein can inhibit the expression level of Smad3 protein. After cells were irradiated with UV rays, the expression levels of procollagen-1 and Smad3 protein will reduce and the expression level of Smad7 protein will increase. Therefore, in this experiment, the expression levels of intracellular procollagen-1 protein, Smad3 protein and Smad7 protein were analyzed by western blotting.
(§4) Specifically, when the concentration of the compound of formula (2) was 25 μM, the protein expression level of Smad7 was 1.1 times as compared to that of the untreated cells.

[5] = system: Smad7; test: as above; format: cell-based, human; settings: UVB 40 mJ/cm^2
Experimental: as §3, §4

[6] = system: procollagen-1; test: as above; format: cell-based, human; settings: 25 μM; UVB 40 mJ/cm^2
Experimental: as §3, §4

[7] = system: p-p38; test: Inhibition test of the phosphorylation of MAPK, western blot; format: cell-based, human; settings: UVB 40 mJ/cm^2
Experimental: (§5) It has been known that the skin photo-aging caused by UV rays will increase the content of MMPs in the dermis by the phosphorylation of MAPK. In this experiment, the effect of caffeamide derivative on the phosphorylation of MAPK in the cells was analyzed by western blotting.
(§6) After being treated with the compound of formula (2) prepared in Example 1, the protein expression levels of the MAPKs induced by UVB were inhibited in a concentration dependent way. Specifically, when the concentration of the compound of formula (2) was 10 μM, the expression level of P-ERK was 1.1 times as compared to that of the untreated cells. When the concentration of the compound of formula (2) was 5 μM, the expression levels of p-JNK and p-p38 were both 1.1 times as compared to that of the untreated cells.

[8] = system: p-JNK; test: as above; format: cell-based, human; settings: UVB 40 mJ/cm^2
Experimental: as §5, §6

[9] = system: p-ERK; test: as above; format: cell-based, human; settings: UVB 40 mJ/cm^2
Experimental: as §5, §6

[10] = system: human fibroblast Hs68 cells; test: Scavenging test of ROS free radicals in UVB-irradiated cells; format: cell-based; settings: UVB 80 mJ/cm^2, 24 hours
Experimental: After incubated in an incubator (37° C., 5% CO2) for 24 hours, the ROS level was examined.

[11] = system: MMP-3; test: MMP expression, western blot, UVB-irradiated Hs68 cells; format: cell-based, human; settings: 5 μM; UVB 40 mJ/cm^2; 48 hours
Experimental: (§7) Human fibroblast Hs68 cells (5×10^5) (the number of Bioresource Collection and Research Center (BCRC): 60038) were counted and incubated in a culture dish with a diameter of 10 cm (the culture dish components were adjusted by L-glutamine (4 mM) to have 1.5 g/L NaHCO3, 4.5 g/L glucose, and 90% Dulbecco's Modified Eagle's Medium with 10% fetal bovine serum (FBS)). The medium was removed until human fibroblast Hs68 cells grow to a confluence of 80%, and the cells were then washed once with 5 ml PBS (phosphate buffered saline). Then, 3 ml phenol red-free medium which contain different concentrations (0 μM to 25 μM) of the compounds of formula (1) or formula (2) prepared in Example 1 were added into the culture dish. After incubating for 1 hour, the cells were irradiated by UV light (UVB with an intensity of 40 mJ/cm^2) for 15 seconds. Next, the phenol red-free medium which contains different concentrations (0 μM to 25 μM) of the compounds of formula (1) or formula (2) prepared in Example 1 were added into the culture dish sequentially. After incubation in an incubator (37° C., 5% CO2) for 48 hours, the cells were collected.
(§8) The collected cells were treated with a sonication buffer (containing Na3VO4 (100 μM), phenylmethanesulfonyl fluoride (PMSFL, 100 mg/ml), leupeptin (20 mg/ml), Tris-HCl (pH 7.4, 50 μM), NaCl (37.5 μM), DL-dithiothretiol (250 μM), sodium deoxycholate (3 μM), EDTA (1 μM), SDS (0.1%), and Igepal™ CA-630 (Sigma-Aldrich, 1%)) and sonicated to rupture the cell membranes. Then, the organelles and fragments of the cells were precipitated by centrifugation, and the supernatant, which contains proteins in the cytosol was collected. Next, the obtained proteins were separated by SDS-PAGE, and transferred to a membrane by western blotting. Antibodies were used to recognize the targeted proteins, such as MMP-1, MMP-3, MMP-9, and actin. The images were recorded by a Luminescent imagination technology (LAS-4000, FUJIFILM), and the variation of the proteins expression levels were determined by a quantitative analysis software (multi Gauge 2.2, Steware Technology Inc.).

[12] = system: MMP-1; test: as above; format: cell-based, human; settings: 5 μM; UVB 40 mJ/cm^2; 48 hours
Experimental: as §7, §8

[13] = system: human fibroblast Hs68 cells; test: Cellular toxicity evaluation, MTT assay; format: cell-based; settings: 24 hours
Experimental: MTT (3-(4,5-dimethylthiazol-2-yl)-2,5-diphenyl tetrazolium bromide) assay was used to determine the cellular toxicity of the caffeamide derivatives described herein. First, different concentrations (0 μM to 100 μM) of the compounds of formula (1) or formula (2) prepared in Example 1 of the present invention were added, respectively, into a 96-well microplate which containing human fibroblast Hs68 cells (1×10^4 cells per well). After the cells were incubated in an incubator at 37° C. and 5% CO2 for 24 hours, 15 μl of MTT solution (0.5 mg/ml; dissolved in PBS) was added into the microplate and the human fibroblast Hs68 cells were incubated for 3 hours. Next, 75 μl SDS (sodium dodecyl sulfate) solution (10% SDS was dissolved in 0.01N HCl) was added into the microplate. After the cells were maintained for 24 hours, the absorbances of each well were measured at a wavelength of 570 nm by an enzyme immunoassay analyzer. Finally, the cell survival rate was calculated by the following formula to observe the cellular toxicity of compounds. The results are shown in Table 5, FIG. 10a and FIG. 10b. Cell survival rate(%)=absorbance of the experimental group/absorbance of the control group.

## O=C1O[C@H]([C@@H](O)CO)C(O)=C1O [Ascorbic acid, ascorbic acid, reference compound]
[1]; 25 μM
  Scavenging efficiency (%): 57.5 ± 1.4%
[1]; 50 μM
  Scavenging efficiency (%): 89.8 ± 0.9%

## O=C(C=Cc1ccc(O)c(O)c1)NCCc1ccccc1 [Compound of formula (1)]
[2]; 10 μM
  expression level of c-Jun as compared to that of the untreated cells: 1.1 times
[2]; 25 μM
  expression level of c-Jun as compared to that of the untreated cells: 1.2 times
[3]
  expression level of c-Fos as compared to that of the untreated cells: 1.1 times
[4]
  effect on protein expression level of Smad3: not affected
[5]; 5 μM
  protein expression level of Smad7 as compared to that of the untreated cells: 1.2 times
[5]; 10 μM
  protein expression level of Smad7 as compared to that of the untreated cells: 0.7 times
[5]; 25 μM
  protein expression level of Smad7 as compared to that of the untreated cells: 0.7 times
[6]
  protein expression level of procollagen-1 decreased by UVB, reversed to: 0.7 times
[7]; 10 μM
  expression level of p-p38 as compared to that of the untreated cells: 1.2 times
[7]; 25 μM
  expression level of p-p38 as compared to that of the untreated cells: 1.0 times
[8]; 10 μM
  expression level of p-JNK as compared to that of the untreated cells: 1.2 times
[8]; 25 μM
  expression level of p-JNK as compared to that of the untreated cells: 0.8 times
[9]; 10 μM
  expression level of p-ERK as compared to that of the untreated cells: 1.2 times
[9]; 25 μM
  expression level of p-ERK as compared to that of the untreated cells: 1.3 times
[10]; 5 μM
  Concentration of ROS (times compared to the untreated cells): 1.2 ± 0.13 times
[10]; 10 μM
  Concentration of ROS (times compared to the untreated cells): 1.0 ± 0.21 times
[10]; 25 μM
  Concentration of ROS (times compared to the untreated cells): 0.8 ± 0.07 times
[10]; 25 μM, listed as compound of formula (1)
  Concentration of ROS (times compared to the untreated cells): 0.8 times
[11]
  expression level of MMP-3 as compared to that of the untreated cells: 1.0 times
[12]
  expression level of MMP-1 as compared to that of the untreated cells: 1.0 times
[1]; DPPH free radical scavenging, read-out: SC50 (the source's name)
  EC50: 22.1 ± 1.3 µM
[13]; 5 μM
  Cell survival rate (%): 99.9 ± 1.8%
[13]; 10 μM
  Cell survival rate (%): 99.5 ± 4.6%
[13]; 25 μM
  Cell survival rate (%): 104.2 ± 3.7%
[13]; 50 μM
  Cell survival rate (%): 107.8 ± 1.2%
